Test results taken from paper PMC5856640 (ACS chemical biology, 2018).

Biological target: Mpa (mycobacterial proteasome ATPase) (Mycobacterium tuberculosis, UniProt P9WQN5)
Test: […]
Format: binding

Sequence of Mpa (mycobacterial proteasome ATPase) (P9WQN5 whole entry): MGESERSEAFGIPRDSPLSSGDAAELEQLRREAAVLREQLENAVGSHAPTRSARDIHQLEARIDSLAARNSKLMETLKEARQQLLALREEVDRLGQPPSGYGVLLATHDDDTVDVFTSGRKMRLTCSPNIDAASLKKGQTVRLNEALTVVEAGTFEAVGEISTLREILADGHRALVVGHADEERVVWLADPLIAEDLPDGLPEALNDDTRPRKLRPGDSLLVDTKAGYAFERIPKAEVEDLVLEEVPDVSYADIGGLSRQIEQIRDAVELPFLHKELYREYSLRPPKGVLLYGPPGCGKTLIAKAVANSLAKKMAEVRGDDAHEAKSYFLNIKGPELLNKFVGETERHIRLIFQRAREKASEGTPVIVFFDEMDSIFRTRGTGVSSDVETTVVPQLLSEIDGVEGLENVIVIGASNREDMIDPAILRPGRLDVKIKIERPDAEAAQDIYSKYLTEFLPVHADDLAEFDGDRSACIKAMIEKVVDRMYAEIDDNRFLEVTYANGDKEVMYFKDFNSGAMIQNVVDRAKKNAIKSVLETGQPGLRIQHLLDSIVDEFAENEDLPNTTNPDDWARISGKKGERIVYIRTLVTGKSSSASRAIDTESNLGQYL

## c1ccc(N=NN2CCOCC2)cc1 [MTBA, NSC 136065]
  Kd: 1 ± 0.1 nM

## Cn1cnc2ncnn2c1=S [MTBB, NSC 145180]
  Kd: 400 ± 100 nM
